# Assay results as given in patent US12569502B2, “Use of bile acids and derivatives thereof in preparation of GPR39 agonist” (PEKING UNIVERSITY, priority 2019, dated 2026).
# Target: T1, GPR39 receptors on m39-20 cell lines (Mus musculus, UniProt Q5U431, T447P)
# T1 construct: P2A-mCherry (C); expressed in transfected cells
# T1 sequence (Q5U431 1-456 T447P): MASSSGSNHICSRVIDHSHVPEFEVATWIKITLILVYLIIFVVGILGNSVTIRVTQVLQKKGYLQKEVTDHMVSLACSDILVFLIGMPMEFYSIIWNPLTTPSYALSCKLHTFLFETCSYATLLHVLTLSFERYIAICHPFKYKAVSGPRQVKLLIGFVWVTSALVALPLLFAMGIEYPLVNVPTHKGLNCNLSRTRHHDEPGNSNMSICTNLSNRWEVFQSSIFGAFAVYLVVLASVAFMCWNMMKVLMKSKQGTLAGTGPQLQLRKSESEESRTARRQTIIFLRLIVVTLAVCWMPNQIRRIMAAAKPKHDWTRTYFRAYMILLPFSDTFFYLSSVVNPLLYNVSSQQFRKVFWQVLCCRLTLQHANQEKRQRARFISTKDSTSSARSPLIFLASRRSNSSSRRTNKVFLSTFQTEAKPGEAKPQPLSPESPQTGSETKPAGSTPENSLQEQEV
# Assay: FLIPR calcium imaging on m39-20 cell lines stably expressing murine-derived GPR39
# Assay type: cell-based
# Conditions: Bile acid + 4 μM zinc ions EC50, m39-20 cells, 4 μM zinc ions
# Source text: Intracellular calcium imaging is a routine technique to study cell functions, the basic principle of which is to detect the concentration of the calcium ion in tissues or cells using a calcium indicator, thereby reflecting certain reactions in the tissues or cells. In the present application, the intracellular calcium released from a cell line that stably or transiently expresses GPR39 is detected using Fluo8-AM, a calcium fluorescent indicator, so as to determine the activation of the GPR39 receptor by the bile acid and derivative thereof.
# HEK293T cells (purchased from ATCC) were seeded in a 6-well plate (coming Co.) at an appropriate density (about 0.5-2×10^5/well). When the cell density reached above 30%, the plasmid PLVXK-mGPR39-P2A-mCherry was transfected with Lipofectamine 3000 (Invitrogen) at a concentration of 2 μg per well. The cells were passaged 24 hours after transfection, the puromycin (gibco) was added into the medium at a concentration of 2 μg/mL for antibiotic screening of cells. After 2-4 days of continuous screening, the cells screened for puromycin resistance were trypsinized and screened by flow cytometry for monoclones with red fluorescence. And these monoclones were seeded in a 96-well plate and cultured in a medium without puromycin for around 10 days. Cell colonies with red fluorescence were sorted under a fluorescence microscope, trypsinized and then passaged and expanded in a 6-well plate. Cell lines m39-20 stably expressing murine-derived GPR39 were obtained through the above methods.
# Calcium dye Fluo8-AM (ATT bioquest Co.) was dissolved in DMSO solvent to formulate a stock solution of 1 μg/μL. […] After then, the calcium dye working solution was replaced with the 4K solution (50 μL per well), and acclimated for 5 min at room temperature for the subsequent calcium imaging experiment.
# Bile acids and derivatives thereof as listed in Table 1 below were dissolved in dimethyl sulfoxide (DMSO, Sigma Co.) solvent to formulate a stock solution of 50 mM, which was stored at −20° C. During calcium imaging with FLIPR, the drug was diluted with the above 4K solution into a working concentration of 400 μM, and packaged into another 96-well plate. […] The instrument parameters were set so that 50 μL of the drug solution may be added into the culture wells within 2 s. The fluorescence recording result within the first 30 seconds was used as the baseline value. The FLIPR robot arm was programmed to automatically add bile acids and derivatives thereof into the cell sample culture wells at the 31st second. 1% of DMSO solvent was used as the blank control.
# After that, the calcium dye working solution was replaced with a 4K solution containing 4 μM zinc ions (50 μL per well), followed by acclimation for 5 min at room temperature.
row,SMILES,EC50 [µM]
1,C[C@H](CCC(=O)NCCS(=O)(=O)O)[C@H]1CC[C@H]2[C@@H]3CC[C@@H]4C[C@H](O)CC[C@]4(C)[C@H]3C[C@H](O)[C@]12C [TDCA],27.6 ± 7.1
2,C[C@H](CCC(=O)NCC(=O)O)[C@H]1CC[C@H]2[C@@H]3CC[C@@H]4C[C@H](O)CC[C@]4(C)[C@H]3CC[C@]12C [GLCA],13.5 ± 3.4
3,"C[C@H](CCC(=O)O)[C@H]1CC[C@H]2[C@@H]3[C@H](O)C[C@@H]4C[C@H](O)CC[C@]4(C)[C@H]3C[C@H](O)[C@]12C [CA, Cholic acid]",49.2 ± 3.3
4,"C[C@H](CCC(=O)O)[C@H]1CC[C@H]2[C@@H]3[C@@H](O)C[C@@H]4C[C@H](O)CC[C@]4(C)[C@H]3CC[C@]12C [UDCA, Ursodeoxycholic acid]",> 100

# Same assay, conditions: FIG. 1
row,SMILES,intracellular calcium signals in m39-20 cell lines
1,C[C@H](CCC(=O)NCCS(=O)(=O)O)[C@H]1CC[C@H]2[C@@H]3CC[C@@H]4C[C@H](O)CC[C@]4(C)[C@H]3C[C@H](O)[C@]12C [TDCA],varying extents of intracellular calcium signals
2,C[C@H](CCC(=O)NCC(=O)O)[C@H]1CC[C@H]2[C@@H]3CC[C@@H]4C[C@H](O)CC[C@]4(C)[C@H]3CC[C@]12C [GLCA],varying extents of intracellular calcium signals

# Same assay, conditions: Only bile acid EC50, m39-20 cells, no zinc ions
row,SMILES,EC50 [µM]
1,C[C@H](CCC(=O)NCC(=O)O)[C@H]1CC[C@H]2[C@@H]3CC[C@@H]4C[C@H](O)CC[C@]4(C)[C@H]3CC[C@]12C [GLCA],> 200

# Same assay, conditions: activation efficacy, m39-20 cells, 4 μM zinc ions
row,SMILES,Bile acid + 4 μM zinc ions Efficacy [%]
1,C[C@H](CCC(=O)NCCS(=O)(=O)O)[C@H]1CC[C@H]2[C@@H]3CC[C@@H]4C[C@H](O)CC[C@]4(C)[C@H]3C[C@H](O)[C@]12C [TDCA],99.3 ± 1.7
2,C[C@H](CCC(=O)NCC(=O)O)[C@H]1CC[C@H]2[C@@H]3CC[C@@H]4C[C@H](O)CC[C@]4(C)[C@H]3CC[C@]12C [GLCA],74 ± 4.1
3,"C[C@H](CCC(=O)O)[C@H]1CC[C@H]2[C@@H]3[C@H](O)C[C@@H]4C[C@H](O)CC[C@]4(C)[C@H]3C[C@H](O)[C@]12C [CA, Cholic acid]",99.3 ± 2.1
4,"C[C@H](CCC(=O)O)[C@H]1CC[C@H]2[C@@H]3[C@@H](O)C[C@@H]4C[C@H](O)CC[C@]4(C)[C@H]3CC[C@]12C [UDCA, Ursodeoxycholic acid]",58.5 ± 4

# Same assay, conditions: activation efficacy, m39-20 cells, no zinc ions
row,SMILES,Only bile acid Efficacy [%]
1,C[C@H](CCC(=O)NCCS(=O)(=O)O)[C@H]1CC[C@H]2[C@@H]3CC[C@@H]4C[C@H](O)CC[C@]4(C)[C@H]3C[C@H](O)[C@]12C [TDCA],22.8 ± 3
2,C[C@H](CCC(=O)NCC(=O)O)[C@H]1CC[C@H]2[C@@H]3CC[C@@H]4C[C@H](O)CC[C@]4(C)[C@H]3CC[C@]12C [GLCA],0
3,"C[C@H](CCC(=O)O)[C@H]1CC[C@H]2[C@@H]3[C@H](O)C[C@@H]4C[C@H](O)CC[C@]4(C)[C@H]3C[C@H](O)[C@]12C [CA, Cholic acid]",0
4,"C[C@H](CCC(=O)O)[C@H]1CC[C@H]2[C@@H]3[C@@H](O)C[C@@H]4C[C@H](O)CC[C@]4(C)[C@H]3CC[C@]12C [UDCA, Ursodeoxycholic acid]",0

# Same assay, conditions: m39-20 cells, Table 1, FIG. 2
row,SMILES,change of activation efficacy after the addition of zinc ions
1,C[C@H](CCC(=O)NCCS(=O)(=O)O)[C@H]1CC[C@H]2[C@@H]3CC[C@@H]4C[C@H](O)CC[C@]4(C)[C@H]3C[C@H](O)[C@]12C [TDCA],obviously improved
2,C[C@H](CCC(=O)NCC(=O)O)[C@H]1CC[C@H]2[C@@H]3CC[C@@H]4C[C@H](O)CC[C@]4(C)[C@H]3CC[C@]12C [GLCA],obviously improved

# Same assay, conditions: m39-20 cells, no zinc ions; read-out: Only bile acid EC50
row,SMILES,EC50 [µM]
1,C[C@H](CCC(=O)NCCS(=O)(=O)O)[C@H]1CC[C@H]2[C@@H]3CC[C@@H]4C[C@H](O)CC[C@]4(C)[C@H]3C[C@H](O)[C@]12C [TDCA],> 200
2,"C[C@H](CCC(=O)O)[C@H]1CC[C@H]2[C@@H]3[C@H](O)C[C@@H]4C[C@H](O)CC[C@]4(C)[C@H]3C[C@H](O)[C@]12C [CA, Cholic acid]",> 200
3,"C[C@H](CCC(=O)O)[C@H]1CC[C@H]2[C@@H]3[C@@H](O)C[C@@H]4C[C@H](O)CC[C@]4(C)[C@H]3CC[C@]12C [UDCA, Ursodeoxycholic acid]",> 200
